In US20230265456A1, “GENE THERAPY VECTOR EXPRESSING CYP27A1 FOR THE TREATMENT OF CEREBROTENDINOUS XANTHOMATOSIS” (FUNDACION PARA LA INVESTIGACION MEDICA APLICADA, priority 2020, published 2023):
Entries after “also recorded” stand apart in the source; their conditions may differ.

Columns and labels:
Format in all cases: in vivo, mouse
CTX mice [1] = assay: Hepatomegaly: relative liver weight as percentage of body weight; settings: 0.5% diet, 3 months
Description: FIG. 11. AAV8-EAAT-CYP27A1 reverses hepatomegaly in CTX mice. The AAV8-EAAT-CYP27A1 vector was administered intravenously to 7 week-old CTX mice at the indicated doses. CDCA was mixed in mouse chow at 0.1 or 0.5%. Untreated CTX and WT littermates were included as a reference. Mice were maintained for 3 months and then they were sacrificed for determination of relative liver weight, represented as percentage of body weight. *p<0.05; ***p<0.001 versus untreated CTX mice. Kruskal-Wallis with Dunn's post-test.
Activation of the xenobiotic response pathways produces hepatomegaly in CTX mice (Repa J J, et al. J. Biol. Chem. 2000; 275:39685-39692).

CTX mice [2] = assay: Bile acid profile in blood (HPLC-MS/MS)
Description: (§1) Blood was centrifuged at 10.000 g for 5 min at room temperature. Plasma was treated with 20 μM butylhydroxytoluene (Sigma) in a N2 atmosphere to protect from oxidation before storage at −80° C. in opaque tubes. Sterol extractions were performed using 100 μl of plasma for quantification of cholestanol and 7αC4 concentrations by HPLC-MS/MS as previously described (Chen W, Chiang J Y L. Gene. 2003; 313:71-82). Bile acid (BA) profiling in serum was carried out after acetonitrile precipitation/extraction (Leníček M, et al. J. Chromatogr. B Anal. Technol. Biomed. Life Sci. 2016; 1033-1034:317-320), using an adaptation (Nytofte N S, et al. J. Med. Genet. 2011; 48:219-225). of a previously described method for BA measurement by HPLC-MS/MS (Ye L, et al. J. Chromatogr. B Anal. Technol. Biomed. Life Sci. 2007; 860:10-17) on a 6420 Triple Quad LC/MS device (Agilent Technologies, Santa Clara, Calif.) (Monte M J, et al. J. Hepatol. 2002; 36:534-542). Alanine aminotransferase (ALT) was quantified in 40 μl plasma samples using a Cobas C311 automated chemistry analyser (Roche Diagnostics, Basel, Switzerland).
In order to determine if gene therapy is able to achieve sustained metabolic correction in CTX mice, the bile acid profile was analyzed in the blood of animals treated with AAV8-EAAT-CYP27A1 for 5 months at 1.5 or 15×10^12 vg/Kg. The optimal dose of CDCA (0.5% chow weight) was maintained for the same period and used for comparison. The inventors observed an increase of primary and secondary bile acids in mice treated with the vector at both doses (FIG. 12), including CDCA. […] This tendency was more evident in the high dose group and included other species such as tauromuricholic acids (TMCA) and taurohyodeoxycholic acid (THDCA). In sharp contrast, treatment with CDCA caused a drastic increase in this bile acid and its derivatives (1000-fold above normal levels), whereas CA and derived species were not restored.

Cyp27a1 = assay: Endogenous Cyp27a1 mRNA in liver (primers exons 1/2), qPCR; settings: liver 2 weeks after vector or one month after initiation of CDCA diet
Description: (§2) RNA was extracted from frozen liver samples using the Maxwell® 16 LEV simplyRNA Cells Kit (Promega) following manufacture's recommendations. Two μg of RNA, treated with DNase I, were retro-transcribed using M-MLV retro-transcriptase (Invitrogen™) and random primers (Life Technologies, Thermo). cDNA was amplified and relative gene expression was determined by quantitative polymerase chain reaction (qPCR) using iQ™ SYBR® Green Supermix reagent (Bio-Rad), in CFX96 Touch™ Real-Time PCR Detection System (Bio-Rad). Table 1 contains the sequence of primers specific for the transgene (CYP27A1) and the mouse genes Cyp7a1, Cyp3a11, Cyp27a1 (exons 1/2), Cyp27a1 (exons 8/9) and 36b4 (used as a housekeeping gene).
(§3) ΔCt values using 36b4 mRNA levels as reference gene were corrected with the efficiency of amplification of each pair of primers and multiplied by 1.000 to facilitate graphical representation.
(§4) To this aim, mRNA was extracted from liver samples collected 2 weeks after vector administration, or one month after initiation of the CDCA treatment. First, the inventors studied the impact of the treatments on the transcriptional control of the endogenous Cyp27a1 gene. Since CTX mice present truncation of the gene at exon 8 out of 9 (Rosen H, et al. J. Biol. Chem. 1998; 273:14805-14812), the inventors employed primers targeting exons 1/2 in order to detect the wild type or truncated transcripts.

Cyp3a11 = settings: 0.5% diet, one month
Description: as §2, §3, §4

Cyp7a1 = settings: 0.5% diet (therapeutic dose), one month
Description: as §2, §3, §4

CTX mice [3] = assay: Tolerability: transaminases (ALT), liver histology, body weight, signs of toxicity; settings: diet 1% of chow weight
Description: Blood was centrifuged at 10.000 g for 5 min at room temperature. Plasma was treated with 20 μM butylhydroxytoluene (Sigma) in a N2 atmosphere to protect from oxidation before storage at −80° C. in opaque tubes. […] Alanine aminotransferase (ALT) was quantified in 40 μl plasma samples using a Cobas C311 automated chemistry analyser (Roche Diagnostics, Basel, Switzerland).

CTX mice [4] = assay: Cholestanol and 7αC4 in plasma of treated CTX mice (HPLC-MS/MS)
Excerpt: A mouse strain with truncation of Cyp27a1 exon 8 was obtained from The Jackson Laboratory (Bar Harbor, Me.) (B6.129-Cyp27a1^tm1Et/J, Ref. 009106) (Rosen H, et al. J. Biol. Chem. 1998; 273:14805-14812). Mice homozygous for this mutation (referred hereinafter to as Cyp27a1^−/− or CTX mice) were maintained in a C57BL6/J background by crossing heterozygous individuals. The offspring was genotyped after weaning as indicated by the repository.
Animals were group-housed, up to 6 animals per cage (male or female), provided with food and water ad libitum and maintained with a 12 h light-dark cycle. The average age for initiation of studies was 7 weeks. AAV vectors were administered intravenously by retro-orbital injection in a final volume of 150 μl saline solution. Chenodeoxycholic (CDCA) (Sigma-Aldrich, Ref: C9377-25G) was supplemented in standard chow at 0.1, 0.5 and 1 g CDCA/100 g of chow (0.1, 0.5 and 1.0% CDCA diets, respectively). Blood was collected by submandibular venous puncture using 1.3 ml EDTA tubes (Sarstedt, Nimbrecht, Germany) except for end-time points/terminal procedures, in which cardiac puncture was performed in anesthetized mice. Once animals were euthanized, liver samples were collected for histological and gene expression analyses.
as §1
This is the only CTX animal model available to date (Rosen et al. J. Biol. Chem. 273 (1998) 14805-14812).
Blood was collected 15 days later for determination of cholestanol and 7aC4 in plasma by HPLC/mass spectrometry. […] Of note, neither elevation of liver transaminases nor any other sign of toxicity was detected in any of the treated animals.

[5] = diet 0.1, 0.5 or 1% of chow weight, one month

With `C[C@H](CCC(=O)O)[C@H]1CC[C@H]2[C@@H]3[C@H](O)C[C@@H]4C[C@H](O)CC[C@]4(C)[C@H]3CC[C@]12C` [CDCA, chenodeoxycholic acid] the “hepatomegaly (relative liver weight)” value (CTX mice [1]) was “only partially”, the “CA and derived species in blood” value (CTX mice [2]; 0.5% chow weight, 5 months) was “not restored” and the “increase in CDCA and its derivatives in blood above normal levels” value (CTX mice [2]; 0.5% chow weight, 5 months) was 1000 fold. The CDCA in blood (CTX mice [2]; therapeutic dose (0.5%)) was “marked accumulation”, the “transcription of the endogenous Cyp27a1 gene” value (Cyp27a1) was “moderate inhibition” and the “Cyp3a11 expression in liver” value (Cyp3a11) was “only a slight reduction”. For the same compound, the “Cyp7a1 expression in liver” value (Cyp7a1) was “drastic reduction of Cyp7a1 expression, below physiological levels; also recorded: virtually abrogated”, the body weight (CTX mice [3]) was “weight loss” and the 7αC4 in plasma (CTX mice [4]; [5]) was “dose-dependent reduction”. For the same compound, the cholestanol in plasma (CTX mice [4]; [5]) was “dose-dependent reduction”, the “cholestanol levels in plasma” value (CTX mice [4]; diet 0.5% or higher, one month) was “below WT mice; also recorded: very efficient” and the 7αC4 in plasma (CTX mice [4]; diet 0.5%, one month, male and female) was “full normalization; also recorded: not completely normalized”. The “therapeutic dose in the CTX model” value (CTX mice [4]; percent of chow weight, dose required for normalization of 7αC4) was 0.5%.
